According to patent publication US5053431A, “Derivatives of chrysophanol as topoisomerase II inhibitors” (Sloan-Kettering Institute For Cancer Research, priority 1990, dated 1991):
Values after ≈ are worked out from the molar mass of the structure shown. Where two headings read alike, the source gives them in different places.

What was measured:
[1] = tested on: mouse leukemia L1210 cells; test: Inhibition of L1210 cell growth; format: cell-based
Procedure: Preliminary biological data for inhibiting cell growth of murine L1210 leukemic cells and human acute promyelocytic leukemia cells (HL-60) during 72 h of exposure to the compounds are given in Table IV. The potencies for inhibiting [^3 H]TdR incorporation into DNA in HL-60 cells during the initial 30-min period are also given in Table IV. It is interesting to note that 1,8-di-O-methyl derivatives are uniformly devoid of activity against L1210 leukemic cells. […] The B/A ratios allow an indirect estimation of whether or not cytotoxicities exerted by these analogues are primarily due to initial inhibition of DNA synthesis. […] Whether these analogues, like m-AMSA, ellipticine, or anthracyclines, act by inhibiting DNA topoisomerase II remains to be explored. […] Our preliminary experiments indicate that the compounds arrest cells in the S and/or G2 phases of the cell cycle (unpublished results).

[2] = tested on: human leukemia HL-60 cells; test: HL-60 cell growth inhibition (72 h); format: cell-based; conditions: HL-60, 72 h, read-out: ID50, M [HL-60 cell growth (72 h)] (A)
Procedure: For cell growth inhibition studies, HL-60 cells […]) were grown in RPMI 1640 media at 37° C. in humidified 5% CO2 for 72 h. Viable cells were counted with the trypan blue exclusion method. The fractional inhibitions at four or five concentrations of compounds (in 0.2% DMSO) were analyzed with a median-effect plot (Chou, T.-C., et al., Adv. Enzyme Regul. 22:27 (1984)) by using a computer program. (Chou, J.; Chou, T.-C. Dose-Effect Analyses with Microcomputer. Quantitation of ID50, LD50, Synergism, Antagonism, Low-dose Risk, Receptor-Binding and Enzyme Kinetics; IBM-PC Series, Elsevier-Biosoft, Elsevier Scientific: Cambridge, U.K., (1986)). The median-effect concentration (ID50) was automatically determined for the x intercept of the median-effect plot. Cell growth in the absence of a compound and in the presence of DMSO was used as a control. DMSO (0.2%) alone inhibited cell growth 3.8±1.2% during the 72-h incubation period.

[3] = tested on: DNA (native and thermally denatured); test: Spectrophotometric study of DNA interaction; format: binding, calf thymus; conditions: for interaction with DNA: absorption spectra, native and thermally denatured DNA
Procedure: Some representative compounds were studied for their ability to interact with nucleic acids in solution by comparison of the electronic spectrum of drug alone with that of the drug in the presence of an excess of nucleic acid. All drugs studied have an absorption band in the visible region, separate from the absorption band of the nucleic acids, and therefore any changes in band intensity and position were indicative of drug chromophore-DNA interaction.
Absorption spectra were measured with an IBM 9410 UV-visible spectrometer interfaced to an HP 9826 computer. Small volumes of the stock drug solutions (2 mg/mL in Me2 SO) were added to 2 mL of buffer (0.01 or 0.1 M NaCl, 5 mM Hepes, pH 7) to obtain a final drug concentration of 5-15 μM, or to the solution of native or thermally denatured DNA (0.2 and 0.1 mM, respectively) in the buffer. After incubation at room temperature for 10 min, the spectra were recorded in the 300-600 nm range (increment 1 nm) and corrected by subtracting the spectrum of the blank which was measured before addition of the drug.

Stability of compound = format: physicochemical
[4] = tested on: [^3 H]TdR incorporation into DNA in HL-60 cells; test: Inhibition of [3H]TdR incorporation into DNA in HL-60 cells (initial 30 min); format: cell-based, human; conditions: for IC50: HL-60, initial 30 min exposure, read-out: ID50, M (HL-60 TdR into DNA (B)); for B/A: ratio of ID50 for TdR incorporation (B) to ID50 for cell growth (A), HL-60
Procedure: For precursor incorporation studies, each compound at four to six concentrations (0.2% DMSO) was preincubated with HL-60 cells (2.5×10^6 /Ml) for 15 min prior to the addition of [^3 H-methyl]TdR (1 μCi, 0.15 nmol/mL) and was incubated for 30 min. […] The incorporation of radioactivity in DNA in the absence of an analogue in the presence of DMSO was used as a control.

cancer = conditions: literature; cited from earlier work
peroxidases = conditions: literature; cited from earlier work
[5] = tested on: proteins, polyadenylate, RNA, DNA; conditions: literature; cited from earlier work
Topo II [6] = test: Inhibition of kDNA decatenation; format: biochemical
leukemic cells = test: Antileukemic activity (Experiment 3); format: cell-based; conditions: read-out: antileukemic activity IC>es
Topo II [7] = test: Heat reversal of protein-linked DNA complex; format: biochemical, human (HL-60); conditions: 65 degrees C
Procedure: (§1) This experiment concerns Topoisomerase II (Topo II)-mediated DNA cleavage activity induced by chrysophanol derivatives. 3-(bis[2-chloroethyl]amino)methyl-1,8-dihydroxy-9,10-anthraquinone (SK-31662) and 3-(2-hydroxyethylamino)methyl-1,8-dihydroxy-9,10-anthraquinone (SK-31694) have antileukemic activity with IC>es of 0.14 and 0.86 uM, respectively. SK-31662 and SK-31694 inhibit kDNA decatenation at 48 and 38 uM, respectively.

Topo II [8] = test: Mapping of DNA-Topo II cleavage sites (Hind III-digested 3'-labeled DNA, HL-60 nuclear extracts); format: biochemical, human (HL-60); conditions: 10 uM
Procedure: as §1

Topo II [9] = test: Topo II cleavable complex formation; format: biochemical, human (HL-60); conditions: 3'-labeled DNA and NE of HL-60
Procedure: as §1

DNA topoisomerase II = conditions: literature; cited from earlier work
[10] = Solubility in aqueous solutions; format: physicochemical
DNA = conditions: literature; cited from earlier work
leukemia L1210/Cisplatin = test: Activity against Cisplatin-resistant leukemia L1210 in mice; format: in vivo, mouse
Procedure: At the dosage of 100 mg/kg/day×5 (ip), mice inoculated with Cisplatin resistant leukemia L1210/Cisplatin are cured.

[11] = Mus musculus, L1210, Table I, read-out: ID50 (the source's name)
[12] = Mus musculus, L1210, Table I, read-out: ID50 (μg/mL)

**Q.** For `O=C1c2cccc(O)c2C(=O)c2c(O)cc(CNCCCl)cc21` [XIa-7, 3-[N-(2-chloroethyl)amino]methyl-1,8-dihydroxy-9,10-anthraquinone], which IC50 ([1]; Mus musculus, L1210, read-out: ID50 (μM)) is on record?
**A.** 7.11 µM

**Q.** What about the IC50 ([1]; Mus musculus, L1210, read-out: ID50 (μg/mL)) of the same compound?
**A.** 2.37 µg/mL

**Q.** What about the IC50 ([2]; Homo sapiens) of the same compound?
**A.** 7.5 µM

**Q.** What about the “reversal of DNA induced changes in absorption spectra by Me2SO” value ([3]; Me2 SO to 1:1 v/v) of the same compound?
**A.** could be reversed by addition of Me2 SO

**Q.** What about the stability (Stability of compound) of the same compound?
**A.** unstable

**Q.** And the IC50 ([4]; Homo sapiens, 0.5 h)?
**A.** 39 µM

**Q.** And the B/A [4]?
**A.** 5.2

**Q.** For `Cc1c2cc[n+](C)cc2c(C)c2c1[nH]c1ccc(O)cc12` [9-OH-NME, 2-N-Methyl-9-hydroxyellipticinium], which anticancer activity (cancer) is on record?
**A.** one of the most active drugs among the ellipticine analogues

**Q.** And the oxidation by peroxidases (peroxidases)?
**A.** easily oxidized by peroxidases

**Q.** For `Cc1c2c(c(C)c3c[n+](C)ccc13)C1=CC(=O)C=CC1=N2` [9-oxo-NME, 9-oxo-2-methylellipticinium], which alkylation of macromolecules [5] is on record?
**A.** easily alkylated by 9-oxo-NME

**Q.** With `O=C1c2cccc(O)c2C(=O)c2c(O)cc(CNCCO)cc21` [XIa-6, 3-(2-hydroxyethylamino)methyl-1,8-dihydroxy-9,10-anthraquinone] as the compound, how does the “concentration that inhibits kDNA decatenation” value (Topo II [6]) read?
**A.** 38 µM

**Q.** What about the IC50 (leukemic cells) of the same compound?
**A.** 0.86 µM

**Q.** And the “reversal of protein-linked DNA by heat” value (Topo II [7])?
**A.** reduced during 0.5 min exposure to 65 °C

**Q.** What about the IC50 [1, 11] of the same compound?
**A.** 0.16 µM

**Q.** And the IC50 [1, 12]?
**A.** 0.066 µg/mL

**Q.** And the IC50 ([2]; Homo sapiens, 0.2% DMSO)?
**A.** 0.86 µM

**Q.** What about the “protein-linked DNA breaks, cleavage site pattern” value (Topo II [8]) of the same compound?
**A.** induce protein-linked DNA breaks with a cleavage site pattern similar to m-AMSA

**Q.** What about the “formation of Topo II cleavable complex” value (Topo II [9]) of the same compound?
**A.** stimulate the formation of Topo II cleavable complex

**Q.** What about the IC50 ([4]; Homo sapiens, 0.5 h) of the same compound?
**A.** 15 µM

**Q.** And the B/A [4]?
**A.** 17.4

**Q.** For `Cc1c2ccncc2c(C)c2c1[nH]c1ccccc12` [ellipticine], which “stabilization of cleavable complex between DNA topoisomerase II and DNA” value (“stabilization” for short) (DNA topoisomerase II) is on record?
**A.** stabilize the cleavable complex between DNA topoisomerase II and DNA

**Q.** With `Cc1cc(O)c2c(c1)C(=O)c1cccc(O)c1C2=O` [IIa, chrysophanol] as the compound, how does the “solubility in aqueous solutions” value [10] read?
**A.** low solubility in aqueous solutions

**Q.** With `COc1cccc2c1C(=O)c1c(OC)cc(CNCCCl)cc1C2=O` [IXa-7, 3-[N-(2-chloroethyl)amino]methyl-1,8-dimethoxy-9,10-anthraquinone] as the compound, how does the IC50 ([1]; Mus musculus, L1210, 72 h, read-out: ID50, M (L1210 cell growth)) read?
**A.** 26 µM

**Q.** What about the IC50 ([2]; Homo sapiens) of the same compound?
**A.** 86 µM

**Q.** What about the stability (Stability of compound) of the same compound?
**A.** unstable

**Q.** And the IC50 ([4]; Homo sapiens, 0.5 h)?
**A.** 19 µM

**Q.** And the B/A [4]?
**A.** 0.22

**Q.** For `Cc1cc(O)c2c(c1)C(=O)c1cc(O)cc(O)c1C2=O` [IIb, emodin], which “solubility in aqueous solutions” value [10] is on record?
**A.** low solubility in aqueous solutions

**Q.** Which “stabilization” value (DNA topoisomerase II) does the source give for `COc1cccc2c1C(=O)c1c(O)c3c(c(O)c1C2=O)C[C@@](O)(C(=O)CO)C[C@@H]3O[C@H]1C[C@H](N)[C@H](O)[C@H](C)O1` [adriamycin] here?
**A.** stabilize the cleavable complex between DNA topoisomerase II and DNA

**Q.** Which IC50 ([1]; Table II, antileukemic activity, read-out: L1210: ID50) does the source give for “3-[(Diethylamino)methyl]-(or 8)-hydroxy-8(or 1)-methoxy-9,10-anthraquinone [Xa-1]” here?
**A.** 11.9 µM

**Q.** What about the IC50 ([2]; 0.2% DMSO) of the same compound?
**A.** 5.2 µM

**Q.** And the “interaction with DNA” value [3]?
**A.** interact with both native and thermally denatured DNA but more strongly with native DNA

**Q.** And the IC50 [4]?
**A.** 14 µM

**Q.** And the B/A [4]?
**A.** 2.7

**Q.** Which results are given for `COc1cc(O)c2c(c1)C(=O)c1cc(CNCCO)cc(O)c1C2=O` [XIb-6, 3-[N-(2-hydroxyethyl)amino]methyl-1,8-dihydroxy-6-methoxy-9,10-anthraquinone]?
**A.** IC50 [1, 11]: 0.19 µM; IC50 [1, 12]: 0.072 µg/mL; IC50 ([1]; Mus musculus, Table IV, L1210, 72 h exposure, read-out: ID50, M (L1210 cell growth)): 0.5 µM; IC50 ([2]; Homo sapiens, 0.2% DMSO): 1.6 µM; interaction with DNA [3]: interact with both native and thermally denatured DNA but more strongly with native DNA; IC50 ([4]; Homo sapiens, 0.5 h): 12 µM; B/A [4]: 7.5

**Q.** With `COc1cc(NS(C)(=O)=O)ccc1Nc1c2ccccc2nc2ccccc12` [m-AMSA, 4'-(9-acridinylamino) methanesulfon-m-aniside] as the compound, how does the “effect on DNA topoisomerase II reactions” value (DNA topoisomerase II) read?
**A.** inhibits the topoisomerization and catenation reactions of DNA topoisomerase II

**Q.** With `COc1c(O)c2c(c3cc(C(=O)N4CCc5c4c(O)c(OC)c4[nH]c(C(=O)N6CC7CC78C6=CC(=O)c6[nH]cc(C)c68)cc54)[nH]c13)CCN2C(N)=O` (stereo not shown) [CC1065] as the compound, how does the “DNA binding / alkylation” value (DNA) read?
**A.** binds to the minor groove of DNA by nonintercalative means and then slowly alkylates the amino group of adenine

**Q.** With `Cc1c2ccncc2c(C)c2c1[nH]c1ccc(O)cc12` [9-hydroxyellipticine] as the compound, how does the anticancer activity (cancer) read?
**A.** potent anticancer agent

**Q.** Which “reversal of protein-linked DNA by heat” value (Topo II [7]) does the source give for `COc1cc([C@@H]2c3cc4c(cc3[C@@H](O[C@@H]3O[C@@H]5CO[C@@H](C)O[C@H]5[C@H](O)[C@H]3O)[C@H]3COC(=O)[C@H]23)OCO4)cc(OC)c1O` [VP-16, etoposide, reference compound] here?
**A.** reduced during 0.5 min exposure to 65 °C

**Q.** And the “stabilization” value (DNA topoisomerase II)?
**A.** stabilize the cleavable complex between DNA topoisomerase II and DNA

**Q.** Which results are given for `O=C1c2cccc(O)c2C(=O)c2c(O)cc(CN(CCCl)CCCl)cc21` [XIa-3, 3-(bis[2-chloroethyl]amino)methyl-1,8-dihydroxy-9,10-anthraquinone]?
**A.** concentration that inhibits kDNA decatenation (Topo II [6]): 48 µM; IC50 (leukemic cells): 0.14 µM; reversal of protein-linked DNA by heat (Topo II [7]): cannot be reversed up to 15 min; ID50 ([1]; Table I): 0.058 µg/mL (≈ 0.147 µM); IC50 ([1]; Table I, read-out: ID50 (the source's name)): 0.13 µM; IC50 ([2]; 0.2% DMSO): 0.18 µM; protein-linked DNA breaks, cleavage site pattern (Topo II [8]): induce protein-linked DNA breaks with a cleavage site pattern similar to m-AMSA; cure of mice inoculated with Cisplatin resistant leukemia L1210/Cisplatin (leukemia L1210/Cisplatin; 100 mg/kg/day×5 (ip)): cured; potency against mouse leukemia L1210 made resistant to Cisplatin (leukemia L1210/Cisplatin; mouse, in vivo): extremely potent; formation of Topo II cleavable complex (Topo II [9]): stimulate the formation of Topo II cleavable complex; IC50 [4]: 69 µM; B/A [4]: 383
